# Assay results: US20190307754A1, “PDE9 INHIBITORS FOR TREATMENT OF PERIPHERAL DISEASES” (IMARA, INC., priority 2016, published 2019)
# Experiments:
# [1] = Stability study in purified water; assay type: physicochemical; conditions: approximately 40 mg/mL in purified water, refrigerated and ambient, 8 days
# Protocol: In another stability study, Compound P3.1 was dissolved at approximately 40 mg/mL of purified water, and evaluated for purity over a period of 8 days. Samples were stored at both refrigerated and ambient conditions, and tested at T=0, Day 2, and Day 8.
# [2] = target: T1, MDR1 (human P-gp) efflux transporter (Homo sapiens, UniProt P08183); assay: Bi-directional permeability across MDCK-MDR1 cell monolayer; assay type: in vitro ADME
# T1 construct: expressed in transfected cells; host or cells: MDCK-MDR1 cells
# MDR1 (P-gp) = target: T2, MDR1 (P-gp) (Homo sapiens, UniProt P08183); assay: as above; assay type: in vitro ADME; conditions: human
# T2 construct: expressed in transfected cells; host or cells: MDCK-MDR1 cells
# T2 sequence (P08183 whole entry): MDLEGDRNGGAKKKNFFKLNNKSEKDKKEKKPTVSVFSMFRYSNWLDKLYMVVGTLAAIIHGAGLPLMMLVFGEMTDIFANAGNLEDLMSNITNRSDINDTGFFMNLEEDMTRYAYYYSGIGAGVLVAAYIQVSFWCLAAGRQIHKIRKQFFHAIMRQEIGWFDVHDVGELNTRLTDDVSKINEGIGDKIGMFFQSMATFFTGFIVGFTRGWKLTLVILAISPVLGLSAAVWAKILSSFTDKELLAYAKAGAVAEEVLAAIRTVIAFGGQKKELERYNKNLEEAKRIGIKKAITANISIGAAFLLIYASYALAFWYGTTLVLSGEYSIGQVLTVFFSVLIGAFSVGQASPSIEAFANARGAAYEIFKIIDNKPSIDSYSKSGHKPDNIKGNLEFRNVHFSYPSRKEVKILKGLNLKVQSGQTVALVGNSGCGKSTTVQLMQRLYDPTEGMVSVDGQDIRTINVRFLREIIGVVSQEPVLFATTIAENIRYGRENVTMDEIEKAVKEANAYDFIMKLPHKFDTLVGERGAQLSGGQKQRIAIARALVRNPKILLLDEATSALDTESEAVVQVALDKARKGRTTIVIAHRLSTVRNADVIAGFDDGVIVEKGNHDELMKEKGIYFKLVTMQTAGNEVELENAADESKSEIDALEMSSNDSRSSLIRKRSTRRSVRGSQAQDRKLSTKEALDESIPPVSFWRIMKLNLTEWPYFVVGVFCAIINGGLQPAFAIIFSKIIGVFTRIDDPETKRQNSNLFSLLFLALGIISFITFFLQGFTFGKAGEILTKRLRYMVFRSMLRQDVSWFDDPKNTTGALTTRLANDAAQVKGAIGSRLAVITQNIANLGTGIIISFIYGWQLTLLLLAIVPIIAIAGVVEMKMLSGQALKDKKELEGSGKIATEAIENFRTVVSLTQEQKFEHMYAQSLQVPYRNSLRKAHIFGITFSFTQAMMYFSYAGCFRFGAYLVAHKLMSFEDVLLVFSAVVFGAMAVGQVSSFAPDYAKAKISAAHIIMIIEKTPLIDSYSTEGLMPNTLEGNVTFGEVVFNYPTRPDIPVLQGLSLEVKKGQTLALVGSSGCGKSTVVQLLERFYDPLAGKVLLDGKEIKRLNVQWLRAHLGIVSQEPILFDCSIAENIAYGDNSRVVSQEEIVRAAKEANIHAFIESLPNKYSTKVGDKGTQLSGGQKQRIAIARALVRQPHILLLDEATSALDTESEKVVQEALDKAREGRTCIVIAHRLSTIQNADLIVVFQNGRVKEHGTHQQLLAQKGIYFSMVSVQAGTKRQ
# T1 sequence (P08183 whole entry): as above
smiles,measurement,setting,value
"C[C@@H]1CN(Cc2ncccn2)C[C@H]1c1cn2c(C3CCOCC3)ncc2c(=O)[nH]1 (single isomer, unassigned) [Compound P3.1]",stability: purity and appearance of solution,[1],No significant change to the purity of the compound or appearance of the solution
same,MDR1 efflux transporter substrate,[2],strong MDR1 (human P-gp) efflux transporter substrate
same,efflux ratio,MDR1 (P-gp),180
